Reference: the supplement of paper PMC10307832

How the values were obtained:
Assay in all cases: relative viability (nuclei count vs DMSO), 5 days (fraction); higher = more cells survive
[1] = compound: CC(C)=CC[C@@H](O)C1=CC(=O)c2c(O)ccc(O)c2C1=O [Shikonin] + Cc1nc(NC(=O)N2CCC[C@H]2C(N)=O)sc1-c1ccnc(C(C)(C)C(F)(F)F)c1 [Alpelisib] (partner 2 µM)
Summary of the method: (§1)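 Lung cancer cell lines, seeded in 1536-well plates, were treated the following day by pin tool with a single drug or with five library-drug doses (not always all listed) in √10 steps on top of a fixed anchor-drug dose. Cells were fixed and nuclei stained in one step after 5 days, and nuclei were counted. Relative viability is the nuclei count for treated wells divided by that for vehicle wells, reported as medians of duplicate plates.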

[2] = compound: CC(C)N(CCCNC(=O)Nc1ccc(C(C)(C)C)cc1)C[C@H]1O[C@@H](n2ccc3c(N)ncnc32)[C@H](O)[C@@H]1O + Nc1nc2[nH]cc(CCc3ccc(C(=O)N[C@@H](CCC(=O)O)C(=O)O)cc3)c2c(=O)[nH]1 [Pemetrexed] (partner 0.2 µM)
Summary of the method: as §1

[3] = compound: CC(C)=CC[C@@H](O)C1=CC(=O)c2c(O)ccc(O)c2C1=O [Shikonin] + CC(=O)c1c(C)c2cnc(Nc3ccc(N4CCNCC4)cn3)nc2n(C2CCCC2)c1=O [Palbociclib] (partner 0.5 µM)
Summary of the method: as §1

[4] = compound: CC(C)N(CCCNC(=O)Nc1ccc(C(C)(C)C)cc1)C[C@H]1O[C@@H](n2ccc3c(N)ncnc32)[C@H](O)[C@@H]1O + CS(=O)(=O)N1CCN(Cc2cc3nc(-c4cccc5[nH]ncc45)nc(N4CCOCC4)c3s2)CC1 [Pictilisib] (partner 1 µM)
Summary of the method: as §1

Row | Cell Line | relative viability ([1]; first compound 0.01 µM) | relative viability ([1]; first compound 0.1 µM) | relative viability ([1]; first compound 0.3162 µM) | relative viability ([1]; first compound 1 µM) | relative viability ([2]; first compound 0.08 µM) | relative viability ([2]; first compound 0.253 µM) | relative viability ([2]; first compound 0.8 µM) | relative viability ([2]; first compound 2.53 µM) | relative viability ([2]; first compound 8 µM) | relative viability ([3]; first compound 0.01 µM) | relative viability ([3]; first compound 0.1 µM) | relative viability ([3]; first compound 0.3162 µM) | relative viability ([3]; first compound 1 µM) | relative viability ([4]; first compound 0.08 µM) | relative viability ([4]; first compound 0.253 µM) | relative viability ([4]; first compound 0.8 µM) | relative viability ([4]; first compound 2.53 µM) | relative viability ([4]; first compound 8 µM)
1 | EMC-BAC-2 | 0.77 | 0.803 | 0.78 | 0.747 | 0.439 | 0.465 | 0.432 | 0.431 | 0.488 | 0.512 | 0.573 | 0.538 | 0.513 | 0.601 | 0.49 | 0.581 | 0.522 | 0.502
2 | LK-2 | 1.04 | 1.54 | 1.11 | 1.04 |  | 0.252 | 0.336 | 0.293 | 0.279 | 0.772 | 0.869 | 0.773 | 0.664 | 0.56 | 0.532 | 0.651 | 0.644 | 0.609
3 | NCI-H2228 | 0.66 | 0.781 | 0.73 | 0.556 | 0.336 | 0.326 | 0.313 | 0.298 | 0.337 | 0.812 | 0.939 | 0.754 | 0.729 | 0.483 |  | 0.462 | 0.478 | 0.28
4 | NCI-H322M | 0.73 | 0.77 | 0.856 | 0.857 | 0.634 | 0.609 | 0.617 | 0.593 | 0.631 | 0.479 | 0.446 | 0.477 | 0.489 | 0.54 | 0.478 | 0.566 | 0.44 | 0.57
5 | NCI-H1975 | 0.676 | 0.712 | 0.702 | 0.538 | 0.303 | 0.296 | 0.292 | 0.3 | 0.286 | 0.549 | 0.629 | 0.541 | 0.641 | 0.289 | 0.268 | 0.197 | 0.271 | 0.289
6 | NCI-H1944 | 0.747 | 0.936 | 0.992 | 0.909 | 0.601 | 0.593 | 0.552 | 0.695 | 0.595 | 0.311 | 0.403 | 0.321 | 0.349 | 0.314 | 0.292 | 0.285 | 0.384 | 0.366
7 | LU99A | 0.592 | 0.671 | 0.576 | 0.441 | 0.178 | 0.206 | 0.176 | 0.204 | 0.167 | 0.457 | 0.486 | 0.348 | 0.38 | 0.332 | 0.287 | 0.411 | 0.369 | 0.312
8 | NCI-H1299 | 1.11 | 1.06 | 1.04 | 1.07 |  |  |  |  |  |  |  |  |  | 0.944 | 0.834 | 0.912 | 0.76 | 0.726
9 | ABC-1 | 1.17 | 1.3 | 0.901 | 0.514 |  |  |  |  |  | 0.904 | 0.592 | 0.892 | 0.586 | 0.623 | 0.71 |  | 0.828 | 0.701
10 | NCI-H727 | 0.447 | 0.547 | 0.62 | 0.405 |  |  |  |  |  | 0.713 | 0.603 | 0.678 | 0.67 | 0.358 | 0.375 | 0.397 | 0.458 | 0.331
11 | NCI-H1650 |  |  |  |  | 0.306 | 0.395 | 0.34 | 0.35 | 0.277 | 0.395 | 0.448 | 0.247 | 0.319 | 0.55 | 0.52 |  | 0.56 | 0.624
12 | ChaGo-K-1 |  |  |  |  | 0.261 | 0.256 | 0.259 | 0.258 | 0.268 | 0.977 | 1.09 | 0.968 | 0.968 | 0.771 | 0.726 | 0.658 | 0.632 | 0.912
13 | NCI-H596 | 0.464 | 0.481 | 0.543 | 0.504 | 0.515 | 0.465 | 0.514 | 0.53 | 0.493 |  |  |  |  | 0.388 | 0.412 | 0.173 | 0.355 | 0.414
14 | SW 900 |  |  |  |  | 0.472 | 0.469 |  | 0.475 | 0.441 | 0.563 | 0.559 | 0.547 | 0.542 |  |  |  |  | 
15 | NCI-H1563 | 0.906 | 0.999 | 0.875 | 0.779 | 0.774 | 0.585 | 0.795 | 0.774 | 0.782 |  |  |  |  | 0.678 | 0.607 | 0.616 | 0.679 | 0.636
16 | A549 | 0.789 | 0.81 | 0.708 | 0.753 |  |  |  |  |  |  |  |  |  | 0.513 | 0.501 | 0.53 | 0.52 | 0.469
17 | NCI-H2342 |  |  |  |  | 0.807 | 0.722 | 0.729 | 0.718 | 0.801 | 0.499 | 0.465 | 0.526 | 0.537 |  |  |  |  | 
18 | NCI-H522 |  |  |  |  | 0.991 | 0.944 | 0.904 | 1.01 | 1.04 | 1.03 | 1.28 | 0.936 | 1.17 |  |  |  |  | 
19 | IA-LM | 0.862 | 0.667 | 0.637 | 0.69 |  |  |  |  |  |  |  |  |  | 0.27 | 0.347 | 0.447 | 0.398 | 0.378
20 | EBC-1 | 0.829 | 0.809 | 0.85 | 0.843 |  |  |  |  |  |  |  |  |  | 0.334 | 0.386 | 0.338 | 0.399 | 0.347
